Laboratory results taken from ChEMBL document CHEMBL1201862, “PubChem BioAssay data set” (2004).
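Cultured in 96-well plates, cells were exposed to test compound for 48 hours across five concentrations. The concentration for 50% growth inhibition is given as GI50.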 Active and inactive are the calls of the source. Rule as the data show it: active = GI50 up to about 1.1 µM and inactive = higher.

Legend:
Experiment in all cases: growth of human tumour cells (NCI), 48 h
DU-145 = system: DU-145
SK-MEL-2 = system: SK-MEL-2
SN12C = system: SN12C
UACC-257 = system: UACC-257
COLO 205 = system: COLO 205
RXF 393 = system: RXF 393
U-251 = system: U-251
NCI/ADR-RES = system: NCI/ADR-RES
SR = system: SR
PC-3 = system: PC-3
A498 = system: A498
MDA-MB-435 = system: MDA-MB-435
MDA-MB-231 = system: MDA-MB-231
SF-539 = system: SF-539
NCI-H226 = system: NCI-H226
NCI-H522 = system: NCI-H522
SNB-75 = system: SNB-75
Malme-3M = system: Malme-3M

SMILES	GI50 (DU-145)	GI50 (SK-MEL-2)	GI50 (SN12C)	GI50 (UACC-257)	GI50 (COLO 205)	GI50 (RXF 393)	GI50 (U-251)	GI50 (NCI/ADR-RES)	GI50 (SR)	GI50 (PC-3)	GI50 (A498)	GI50 (MDA-MB-435)	GI50 (MDA-MB-231)	GI50 (SF-539)	GI50 (NCI-H226)	GI50 (NCI-H522)	GI50 (SNB-75)	GI50 (Malme-3M)
Clc1ccc(/C=C/c2nc(-c3ccccc3)cn3c2nc2ccccc23)cc1Cl	> 100 µM (inactive)	> 100 µM (inactive)	38.1 µM (inactive)	> 100 µM (inactive)	> 100 µM (inactive)	50.7 µM (inactive)	42 µM (inactive)	55.6 µM (inactive)	33.7 µM (inactive)	62.4 µM (inactive)	> 100 µM (inactive)	35.3 µM (inactive)	> 100 µM (inactive)	> 100 µM (inactive)	> 100 µM (inactive)	–	–	–
COCCCN1C(=O)C2c3[nH]c4ccccc4c3C3CCC(C(C)(C)C)CC3C2C1=O (centres undefined)	58.9 µM (inactive)	–	21.4 µM (inactive)	27.7 µM (inactive)	> 10 µM (inactive)	21.3 µM (inactive)	17.7 µM (inactive)	> 10 µM (inactive)	25.4 µM (inactive)	19.1 µM (inactive)	–	29.7 µM (inactive)	21.7 µM (inactive)	27.4 µM (inactive)	25.4 µM (inactive)	21.7 µM (inactive)	47.6 µM (inactive)	–
COc1ccc(C(=O)/C=C/c2ccc(OCCSCCCCCCCCCCSCCOc3ccc(/C=C/C(=O)c4ccc(OC)cc4)cc3)cc2)cc1	> 100 µM (inactive)	> 100 µM (inactive)	> 100 µM (inactive)	> 100 µM (inactive)	> 100 µM (inactive)	> 100 µM (inactive)	> 100 µM (inactive)	> 100 µM (inactive)	> 100 µM (inactive)	> 100 µM (inactive)	–	> 100 µM (inactive)	> 100 µM (inactive)	> 100 µM (inactive)	> 100 µM (inactive)	–	> 100 µM (inactive)	–
S=C(NCc1ccccc1)N/N=C/c1ccccn1	3.08 µM (inactive)	14.1 µM (inactive)	4.31 µM (inactive)	2.42 µM (inactive)	0.104 µM (active)	–	2.97 µM (inactive)	1.88 µM (inactive)	0.29 µM (active)	0.762 µM (active)	3.87 µM (inactive)	5.69 µM (inactive)	1.24 µM (inactive)	4.6 µM (inactive)	2.01 µM (inactive)	0.982 µM (active)	3.91 µM (inactive)	1.45 µM (inactive)
COc1cc(/C=C/C=C2\CCC/C(=C\C=C\c3ccc(O)c(OC)c3)C2=O)ccc1O	14.7 µM (inactive)	21.2 µM (inactive)	17.3 µM (inactive)	12.1 µM (inactive)	18.6 µM (inactive)	10.8 µM (inactive)	17.7 µM (inactive)	12.2 µM (inactive)	1.69 µM (inactive)	6.58 µM (inactive)	–	9.57 µM (inactive)	39.1 µM (inactive)	17.5 µM (inactive)	–	0.895 µM (active)	26.7 µM (inactive)	10.6 µM (inactive)
O=C1NC(N2CCOCC2)=N/C1=C\c1ccc(Cl)cc1	> 100 µM (inactive)	> 100 µM (inactive)	> 100 µM (inactive)	> 100 µM (inactive)	> 100 µM (inactive)	> 100 µM (inactive)	> 100 µM (inactive)	> 100 µM (inactive)	> 100 µM (inactive)	> 100 µM (inactive)	–	> 100 µM (inactive)	> 100 µM (inactive)	> 100 µM (inactive)	> 100 µM (inactive)	> 100 µM (inactive)	60.8 µM (inactive)	> 100 µM (inactive)
COc1cc(Nc2ccc3c(c2)CCC3)nc(OC)n1	53 µM (inactive)	33 µM (inactive)	30.2 µM (inactive)	44.4 µM (inactive)	37.3 µM (inactive)	–	> 100 µM (inactive)	23.1 µM (inactive)	20.5 µM (inactive)	27.1 µM (inactive)	24.3 µM (inactive)	> 100 µM (inactive)	38.5 µM (inactive)	38.9 µM (inactive)	32.5 µM (inactive)	21.4 µM (inactive)	18.9 µM (inactive)	32.1 µM (inactive)
C/C(=C\COP(=O)(O)OP(=O)(O)O)CCCOCc1ccccc1	> 100 µM (inactive)	> 100 µM (inactive)	> 100 µM (inactive)	38.4 µM (inactive)	> 100 µM (inactive)	> 100 µM (inactive)	> 100 µM (inactive)	> 100 µM (inactive)	> 100 µM (inactive)	> 100 µM (inactive)	–	> 100 µM (inactive)	> 100 µM (inactive)	> 100 µM (inactive)	> 100 µM (inactive)	> 100 µM (inactive)	> 100 µM (inactive)	> 100 µM (inactive)
Cc1ccc2[nH]c(=O)c(-c3cnc(O)nn3)c(O)c2c1	> 100 µM (inactive)	45 µM (inactive)	> 100 µM (inactive)	57.4 µM (inactive)	> 100 µM (inactive)	17.2 µM (inactive)	> 100 µM (inactive)	> 100 µM (inactive)	> 100 µM (inactive)	15.6 µM (inactive)	> 100 µM (inactive)	60.3 µM (inactive)	> 100 µM (inactive)	> 100 µM (inactive)	> 100 µM (inactive)	–	> 100 µM (inactive)	> 100 µM (inactive)
CC1=CCS(=O)(=O)C1C(O)C1=C(C)CCCC1(C)C (centres undefined)	> 100 µM (inactive)	> 100 µM (inactive)	> 100 µM (inactive)	58.9 µM (inactive)	60.1 µM (inactive)	> 100 µM (inactive)	56.8 µM (inactive)	78.7 µM (inactive)	–	55.5 µM (inactive)	0.0395 µM (active)	63.4 µM (inactive)	> 100 µM (inactive)	> 100 µM (inactive)	> 100 µM (inactive)	58.6 µM (inactive)	98.4 µM (inactive)	60 µM (inactive)
COC1C(=O)N(SC)C1c1ccccc1Cl (centres undefined)	> 100 µM (inactive)	> 100 µM (inactive)	22.8 µM (inactive)	> 100 µM (inactive)	51.8 µM (inactive)	> 100 µM (inactive)	52.4 µM (inactive)	68.1 µM (inactive)	18.6 µM (inactive)	86.7 µM (inactive)	> 100 µM (inactive)	21.3 µM (inactive)	35.6 µM (inactive)	19.6 µM (inactive)	–	16.6 µM (inactive)	–	22.6 µM (inactive)
Oc1c(CN2CCN(c3ccccc3)CC2)cc(Br)c2cccnc12	1.63 µM (inactive)	2.17 µM (inactive)	0.991 µM (active)	2.96 µM (inactive)	29.6 µM (inactive)	1.46 µM (inactive)	0.671 µM (active)	0.206 µM (active)	0.284 µM (active)	4.22 µM (inactive)	7.46 µM (inactive)	1.46 µM (inactive)	2.33 µM (inactive)	2.07 µM (inactive)	–	0.555 µM (active)	3.78 µM (inactive)	0.995 µM (active)
CN(C)c1ccc(/C=N/NC2=N/C(=C\c3ccco3)C(=O)N2)cc1	> 100 µM (inactive)	> 100 µM (inactive)	> 100 µM (inactive)	> 100 µM (inactive)	> 100 µM (inactive)	> 100 µM (inactive)	> 100 µM (inactive)	> 100 µM (inactive)	–	> 100 µM (inactive)	> 100 µM (inactive)	> 100 µM (inactive)	> 100 µM (inactive)	> 100 µM (inactive)	> 100 µM (inactive)	> 100 µM (inactive)	> 100 µM (inactive)	> 100 µM (inactive)
CC1CCN(C(C)C)P(=S)(Cc2ccccc2)O1 (centres undefined)	> 100 µM (inactive)	44.3 µM (inactive)	–	97.3 µM (inactive)	> 100 µM (inactive)	–	> 100 µM (inactive)	> 100 µM (inactive)	> 100 µM (inactive)	55 µM (inactive)	–	> 100 µM (inactive)	> 100 µM (inactive)	> 100 µM (inactive)	> 100 µM (inactive)	–	–	> 100 µM (inactive)
CC(C)=CCC[C@@H](C)C1=C(O)C(=O)C(C)=C(Nc2ccccc2I)C1=O	23.4 µM (inactive)	10.8 µM (inactive)	16.7 µM (inactive)	16.3 µM (inactive)	15.5 µM (inactive)	13.2 µM (inactive)	7.01 µM (inactive)	2.28 µM (inactive)	1.3 µM (inactive)	5.61 µM (inactive)	5.43 µM (inactive)	21.5 µM (inactive)	23.8 µM (inactive)	9.23 µM (inactive)	5.42 µM (inactive)	–	6.14 µM (inactive)	12.2 µM (inactive)
COC(O)C(=O)c1c2c(cc3c1CC1(Cc4cc5c(cc4C1)CCC5)C3)CCC2 (centres undefined)	19.5 µM (inactive)	16 µM (inactive)	–	18.7 µM (inactive)	–	14.8 µM (inactive)	11.6 µM (inactive)	17.3 µM (inactive)	3.99 µM (inactive)	16.7 µM (inactive)	17.9 µM (inactive)	2.7 µM (inactive)	14.1 µM (inactive)	17.3 µM (inactive)	–	17.7 µM (inactive)	17.1 µM (inactive)	16.3 µM (inactive)
COc1ccc(C(=O)C(CC2C(=O)CC(C)(C)C(C(=O)C(=O)Nc3c(C)cccc3C)C2=O)c2ccc(OC)cc2)cc1 (centres undefined)	> 100 µM (inactive)	> 100 µM (inactive)	> 100 µM (inactive)	> 100 µM (inactive)	> 100 µM (inactive)	> 100 µM (inactive)	> 100 µM (inactive)	> 100 µM (inactive)	22.9 µM (inactive)	> 100 µM (inactive)	–	> 100 µM (inactive)	> 100 µM (inactive)	> 100 µM (inactive)	> 100 µM (inactive)	> 100 µM (inactive)	> 100 µM (inactive)	–
